Several values for one entry are separate records, joined by “and”; a condition that tells them apart may be missing. Equal entries are not always repeated. Toxic doses and inconclusive results are not listed.

The test has as its system P388 leukemia ip, CD2F1 mice, survival T/C. Description: NCI In Vivo Anticancer Drug Screen. Data for tumor model P388 Leukemia (intraperitoneal) in CD2F1 (CDF1) mice. The note with it: endpoint: median survival time, higher = longer survival. In outline: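 Mice carrying the transplanted tumor received test compound or vehicle. Survival was recorded in each group, and the value is the treated-group measurement divided by that of the vehicle-treated control group.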

Where [1] appears, read: dose: 50.0 mg/kg/injection, schedule: Q01DX005 (ip), vehicle: saline with Tween-80.
[2] abbreviates: dose: 100.0 mg/kg/injection, schedule: Q01DX005 (ip), vehicle: saline with Tween-80.
The mark [3] stands for this setting: dose: 200.0 mg/kg/injection, schedule: Q01DX005 (ip), vehicle: saline with Tween-80.
Setting [4] is: dose: 50.0 mg/kg/injection, schedule: Q04DX003 (ip), vehicle: Klucel (hydroxypropylcellulose) (HPC).
Where [5] appears, read: dose: 100.0 mg/kg/injection, schedule: Q04DX003 (ip), vehicle: Klucel (hydroxypropylcellulose) (HPC).
Where [6] appears, read: dose: 60.0 mg/kg/injection, schedule: Q01DX005 (ip), vehicle: saline with Tween-80.
Setting [7] is: dose: 120.0 mg/kg/injection, schedule: Q01DX005 (ip), vehicle: saline with Tween-80.
[8] abbreviates: dose: 240.0 mg/kg/injection, schedule: Q01DX005 (ip), vehicle: saline with Tween-80.
The mark [9] stands for this setting: dose: 12.5 mg/kg/injection, schedule: Q01DX009 (ip), vehicle: Klucel (hydroxypropylcellulose) (HPC).
Where [10] appears, read: dose: 25.0 mg/kg/injection, schedule: Q01DX009 (ip), vehicle: Klucel (hydroxypropylcellulose) (HPC).
The mark [11] stands for this setting: dose: 50.0 mg/kg/injection, schedule: Q01DX009 (ip), vehicle: Klucel (hydroxypropylcellulose) (HPC).
[12] abbreviates: dose: 100.0 mg/kg/injection, schedule: Q01DX001 (ip), vehicle: saline with Tween-80.
Where [13] appears, read: dose: 200.0 mg/kg/injection, schedule: Q01DX001 (ip), vehicle: saline with Tween-80.
Setting [14] is: dose: 100.0 mg/kg/injection, schedule: Q01DX009 (ip), vehicle: Klucel (hydroxypropylcellulose) (HPC).
Where [15] appears, read: dose: 200.0 mg/kg/injection, schedule: Q01DX009 (ip), vehicle: Klucel (hydroxypropylcellulose) (HPC).
Where [16] appears, read: dose: 50.0 mg/kg/injection, schedule: Q01DX005 (ip), vehicle: Klucel (hydroxypropylcellulose) (HPC).
Where [17] appears, read: dose: 100.0 mg/kg/injection, schedule: Q01DX005 (ip), vehicle: Klucel (hydroxypropylcellulose) (HPC).
[18] abbreviates: dose: 200.0 mg/kg/injection, schedule: Q01DX005 (ip), vehicle: Klucel (hydroxypropylcellulose) (HPC).
Where [19] appears, read: dose: 12.5 mg/kg/injection, schedule: Q01DX005 (ip), vehicle: saline.
[20] abbreviates: dose: 25.0 mg/kg/injection, schedule: Q01DX005 (ip), vehicle: saline.
Setting [21] is: dose: 50.0 mg/kg/injection, schedule: Q01DX005 (ip), vehicle: saline.
[22] abbreviates: dose: 25.0 mg/kg/injection, schedule: Q01DX009 (ip), vehicle: saline with Tween-80.
Where [23] appears, read: dose: 50.0 mg/kg/injection, schedule: Q01DX009 (ip), vehicle: saline with Tween-80.
Where [24] appears, read: dose: 100.0 mg/kg/injection, schedule: Q01DX009 (ip), vehicle: saline with Tween-80.

Turning to `O=C1CN2C(=O)C1(c1ccccc1)C(=O)NC2=S` (stereo not drawn), the T/C was 105 % of control (dose: 100.0 mg/kg/injection, schedule: Q04DX002 (ip), vehicle: Klucel (hydroxypropylcellulose) (HPC)); 106 % of control (dose: 200.0 mg/kg/injection, schedule: Q04DX002 (ip), vehicle: Klucel (hydroxypropylcellulose) (HPC)); 106 % of control (dose: 400.0 mg/kg/injection, schedule: Q04DX002 (ip), vehicle: Klucel (hydroxypropylcellulose) (HPC)).

As to `S=C1NCCNC(=S)SSSS1`, the T/C under setting [1] is 107 % of control, the T/C under setting [2] was 114 % of control and the T/C under setting [3] was 113 % of control.

As to `O=C1C=CC2(CCCCC2)CC1`, the T/C is, setting by setting: (dose: 25.0 mg/kg/injection, schedule: Q04DX003 (ip), vehicle: Klucel (hydroxypropylcellulose) (HPC)) 97 % of control; under setting [4], 97 % of control; under setting [5], 95 % of control.

As to `O=C(NC(Cc1ccccc1)C(=O)O)c1ccc([N+](=O)[O-])cc1` (stereo not drawn), the T/C is 97 % of control (dose: 25.0 mg/kg/injection, schedule: Q01DX009 (ip), vehicle: other); 89 % of control (dose: 50.0 mg/kg/injection, schedule: Q01DX009 (ip), vehicle: other); 104 % of control (dose: 100.0 mg/kg/injection, schedule: Q01DX009 (ip), vehicle: other).

Take `O=C(O)c1c2c(nc3ccccc13)CCC(C(=O)O)C2` (stereo not drawn): the T/C is, setting by setting: under setting [6], 96 % of control; under setting [7], 102 % of control; under setting [8], 96 % of control.

Turning to `COc1ccc([N+]([O-])=NC#N)cc1`, the T/C is 95 % of control under setting [9]; 98 % of control under setting [10]; 109 % of control under setting [11]; 99 % of control under setting [4]; 100 % of control under setting [5].

`C=CCCCCCCCCCC(CCCCCC)C(=O)O` (stereo not drawn): the T/C (dose: 50.0 mg/kg/injection, schedule: Q01DX001 (ip), vehicle: saline with Tween-80) was 91 % of control; the T/C under setting [12] was 100 % of control; the T/C under setting [13] was 95 % of control.

`O=S(=O)(NCCSSCCNS(=O)(=O)c1ccc2ccccc2c1)c1ccc2ccccc2c1`: the T/C was 91 % of control under setting [11], 92 % of control under setting [14] and 88 % of control under setting [15].

For `C1CC1c1nn[nH]n1`, the T/C is, setting by setting: under setting [11], 109 % of control; under setting [14], 110 % of control; under setting [15], 107 % of control.

Take `O=C(CN1CCCCCC1)Nc1ccc2c(c1)C(=O)c1ccc(NC(=O)CN3CCCCCC3)cc1C2=O`: the T/C was 89 % of control under setting [16]; 97 % of control (dose: 50.0 mg/kg/injection, schedule: Q01DX005 (ip), vehicle: acid diluted with saline); 89 % of control under setting [17]; 99 % of control (dose: 100.0 mg/kg/injection, schedule: Q01DX005 (ip), vehicle: acid diluted with saline); 100 % of control (dose: 200.0 mg/kg/injection, schedule: Q01DX005 (ip), vehicle: acid diluted with saline).

With `NCCCCC(NC(=O)OCC1c2ccccc2-c2ccccc21)C(=O)O` (stereo not drawn), the T/C was 99 % of control under setting [16], 99 % of control under setting [17] and 109 % of control under setting [18].

As to `COc1cc(C(C)c2cc3c(cc2OCC(C)=O)OCO3)cc(OC)c1OC` (stereo not drawn), the T/C under setting [6] was 105 % of control, the T/C under setting [7] was 97 % of control and the T/C under setting [8] was 106 % of control.

For `O=c1nc(-c2ccccc2)nc(-c2ccccc2)[nH]1`, the T/C was 93 % of control (dose: 100.0 mg/kg/injection, schedule: Q04DX002 (ip), vehicle: saline with Tween-80); 89 % of control (dose: 200.0 mg/kg/injection, schedule: Q04DX002 (ip), vehicle: saline with Tween-80); 108 % of control (dose: 400.0 mg/kg/injection, schedule: Q04DX002 (ip), vehicle: saline with Tween-80).

On to `CCCC(=O)N(C)O`, for which the T/C runs as follows: under setting [2], 108 % of control; under setting [3], 103 % of control.

Turning to `CN(C)c1ccc(CCc2nc(N)nc3nccnc23)cc1`, the T/C under setting [4] is 96 % of control; the T/C under setting [5] is 90 % of control; the T/C (dose: 200.0 mg/kg/injection, schedule: Q04DX003 (ip), vehicle: Klucel (hydroxypropylcellulose) (HPC)) was 96 % of control; the T/C (dose: 400.0 mg/kg/injection, schedule: Q04DX003 (ip), vehicle: Klucel (hydroxypropylcellulose) (HPC)) was 99 % of control.

Take `CCCCCC(=O)C(CCCC)(c1nc2n(c1O)C(=N)N=N2)c1nc2n(c1O)C(=N)N=N2` (stereo not drawn): the T/C runs as follows: under setting [1], 107 % of control; under setting [2], 93 % of control.

On to `CS(=O)(=O)CS(=O)(=O)OCCF`, for which the T/C under setting [19] was 188 % of control; the T/C under setting [20] is 258 % of control and 285 % of control; the T/C under setting [21] was 285 % of control.

Consider `C#CCN1CCCCC1`, for which the T/C under setting [19] was 105 % of control; the T/C under setting [20] is 100 % of control; the T/C under setting [21] is 100 % of control and 107 % of control.

Consider `COc1ccc(/C=N/NC(N)=O)c(OC)c1OC`, for which the T/C reads like this: under setting [11], 100 % of control; under setting [14], 103 % of control; under setting [15], 98 % of control.

As to `CC(=O)NC(Cc1c[nH]c2ccccc12)C(C)=O` (stereo not drawn), the T/C runs as follows: under setting [22], 89 % of control; under setting [23], 91 % of control; under setting [24], 106 % of control; (dose: 200.0 mg/kg/injection, schedule: Q01DX009 (ip), vehicle: saline with Tween-80) 97 % of control.

On to `COC(=O)C(/C=[N+](\[O-])C1CCCCC1)=C(\C=[N+](/[O-])C1CCCCC1)C(=O)OC`, for which the T/C is, setting by setting: under setting [6], 102 % of control; under setting [7], 87 % of control; under setting [8], 91 % of control.

For the molecule `O=C(c1ccc2c(c1)C(=O)NC2=O)c1ccc2c(c1)C(=O)NC2=O`, the T/C was 96 % of control under setting [22], 89 % of control under setting [23] and 86 % of control under setting [24].

As to `CCN(CC)CCC(=O)c1ccc(OC)c2ccccc12`, the T/C is 103 % of control under setting [21]; 104 % of control (dose: 100.0 mg/kg/injection, schedule: Q01DX005 (ip), vehicle: saline); 103 % of control (dose: 200.0 mg/kg/injection, schedule: Q01DX005 (ip), vehicle: saline).

`CCOC1=C(CC)C(=O)c2ccccc2C1=O`: the T/C by setting is: under setting [16], 100 % of control; under setting [17], 100 % of control; under setting [18], 107 % of control.

Take `CNc1ncnc2c1ccn2C1OC(CO)C(O)C1O` (stereo not drawn): the T/C (dose: 6.25 mg/kg/injection, schedule: Q01DX005 (ip), vehicle: saline with Tween-80) is 100 % of control; the T/C (dose: 12.5 mg/kg/injection, schedule: Q01DX005 (ip), vehicle: saline with Tween-80) is 108 % of control; the T/C (dose: 25.0 mg/kg/injection, schedule: Q01DX005 (ip), vehicle: saline with Tween-80) is 100 % of control.

Consider `O=C(Nc1cccc(C(F)(F)F)c1)c1cc(Br)cc(Br)c1O`, for which the T/C runs as follows: (dose: 6.25 mg/kg/injection, schedule: Q01DX009 (ip), vehicle: Klucel (hydroxypropylcellulose) (HPC)) 95 % of control; under setting [9], 100 % of control; under setting [10], 91 % of control.

Regarding `C1=CC2OC2CCCCCCCC1` (mixture of isomers), the T/C is 106 % of control under setting [22], 107 % of control under setting [23] and 109 % of control under setting [24].

For `COC(=O)/C(=C\C=C\c1ccccc1)NC(=O)c1ccccc1`, the T/C by setting is: under setting [12], 100 % of control; under setting [13], 96 % of control; (dose: 400.0 mg/kg/injection, schedule: Q01DX001 (ip), vehicle: saline with Tween-80) 89 % of control.
